According to patent US7455855B2, “Delivering substance and drug delivery system using the same” (Santen Pharmaceutical Co., Ltd., priority 2000, dated 2008):
Where a name gives a salt, the structure may show the parent alone. Read-outs that look alike come from different tables or passages of the source.

Key:
[1] = 3H-labelled, 100 μl/eye into vitreous body, moment method, 1 to 21 days, average of three samples
[2] = Intraocular kinetic tests by fluorophotometry after injection into the vitreous body; type: in vivo, white rabbits; details: for half-life: rabbit, other: injection into the vitreous body (intravitreal)
Experimental: Intraocular kinetic tests were conducted by the following methods using the delivering substances A and B containing a fluorescence.
The same procedure as mentioned above was repeated except that fluorescein sodium was used instead of the delivering substances A and B to prepare a 10 μg/ml injection containing fluorescein sodium for comparison.
1) A mixed solution containing an aqueous ketamine hydrochloride solution (50 mg/ml) and an aqueous xylazine hydrochloride (50 mg/ml) in a ratio of 7:3 was administered intramuscularly to white rabbits to anesthetize.
2) A tropicamide (0.5%)/phenylephrine hydrochloride (0.5%) ophthalmic solution was instilled into both eyes to cause mydriasis in the both eyes.
3) The both eyes were anesthetized with an oxybuprocaine hydrochloride (0.5%) ophthalmic solution.
4) Each of the above-mentioned injection was administered to the center of a vitreous body from an ocular pars plana with a syringe equipped with a 30G needle.
5) Intraocular fluorescence intensity was measured with a fluorophotometry apparatus after the administration to the vitreous body at 1, 4, 7, 15, 35 and 56 days. A calibration curves were prepared, changes in concentration in the vitreous body and a retina were determined, and respective half-lives were calculated. The above-mentioned operations 1) and 2) were carried out before the intraocular fluorescence intensity was measured, too.
The numerical values in Tables 1 and 2 are the average of three samples respectively.

Compound | Half-life (days) in the retina ([1]; retina) [days] | Half-life (days) in the vitreous body ([1]; vitreous body) [days] | half-life ([2]; retina, restated in hours in the text, read-out: half-life in the retina) [days] | half-life in the vitreous body ([2]; vitreous body, restated in hours in the text) | half-life ([2]; white, 10 μg/ml, retina, injection into the vitreous body, moment method from data measured 1 to 56 days after injection, average of three samples, read-out: Half-life (days) in the retina) [days] | half-life ([2]; white, vitreous body, injection into the vitreous body, moment method from data measured 1 to 35 days after injection, average of three samples, read-out: Half-life (days) in the vitreous body) [days]
C[C@]12N[C@H](Cc3ccccc31)c1ccccc12 [Comparative substance X, [5R,10S]-(+)-5-methyl-10,11-dihydro-5H-dibenzo[a,d]cycloheptene-5,10-imine maleate] | 0.6 | 0.5 |  |  |  | 
O=C1OC2(c3ccc(O)cc3Oc3cc(O)ccc32)c2ccccc21 [Fluorescein sodium, fluorescein sodium] |  |  | < 0.1 | less than five hours | < 0.1 | < 0.2
